Measurements: patent US8901124B2, “Pyridazine amide compounds useful as SYK inhibitors” (priority 2012, dated 2014)

What follows are compounds tested on HUMAN WHOLE BLOOD (assay: IC50 in human whole blood).
Type: cell-based

Row | IC50 | SMILES
1 | 1420 nM | NC(=O)c1nnc(N[C@@H]2CCCC[C@@H]2N)cc1Nc1cccc(-n2cccn2)n1 [Compound I-33, 4-(6-(1H-pyrazol-1-yl)pyridin-2-ylamino)-6-((1R,2S)-2-aminocyclohexylamino)pyridazine-3-carboxamide]
2 | 313 nM | Cc1ccc(Nc2cc(N[C@@H]3CCOC[C@@H]3N)nnc2C(N)=O)nc1C(C)C [Compound I-27, 6-((3R,4R)-3-Amino-tetrahydro-pyran-4-ylamino)-4-(6-isopropyl-5-methyl-pyridin-2-ylamino)-pyridazine-3-carboxylic acid amide]
3 | 923 nM | Cc1cc(Nc2cc(N[C@@H]3CCCC[C@@H]3N)nnc2C(N)=O)nc(C(C)C)c1 [Compound I-35, 6-((1R,2S)-2-aminocyclohexylamino)-4-(6-isopropyl-4-methylpyridin-2-ylamino)pyridazine-3-carboxamide]
4 | 21500 nM | Cn1cnc2c(Nc3cc(N[C@@H]4CCCC[C@@H]4N)nnc3C(N)=O)cccc21 [Compound I-22, 6-((1R,2S)-2-aminocyclohexylamino)-4-(1-methyl-1H-benzo[d]imidazol-4-ylamino)pyridazine-3-carboxamide]
5 | 332 nM | CCCc1nc(Nc2cc(N[C@@H]3CCOC[C@@H]3N)nnc2C(N)=O)ccc1OC [Compound I-40, 6-((3R,4R)-3-aminotetrahydro-2H-pyran-4-ylamino)-4-(5-methoxy-6-propylpyridin-2-ylamino)pyridazine-3-carboxamide]
6 | 2340 nM | CC(C)(O)c1cccc(Nc2cc(N[C@@H]3CCCC[C@@H]3N)nnc2C(N)=O)n1 [Compound I-37, 6-((1R,2S)-2-aminocyclohexylamino)-4-(6-(2-hydroxypropan-2-yl)pyridin-2-ylamino)pyridazine-3-carboxamide]
7 | 909 nM | COc1nc(Nc2cc(N[C@@H]3CCOC[C@@H]3N)nnc2C(N)=O)ccc1C(C)C [Compound I-42, 6-((3R,4R)-3-aminotetrahydro-2H-pyran-4-ylamino)-4-(5-isopropyl-6-methoxypyridin-2-ylamino)pyridazine-3-carboxamide]
8 | 810 nM | NC(=O)c1nnc(N[C@@H]2CCCC[C@@H]2N)cc1Nc1cccc(-n2nccn2)n1 [Compound I-23, 4-(6-(2H-1,2,3-triazol-2-yl)pyridin-2-ylamino)-6-((1R,2S)-2-aminocyclohexylamino)pyridazine-3-carboxamide]
9 | 818 nM | CCCc1cc(C)cc(Nc2cc(N[C@@H]3CCOC[C@@H]3N)nnc2C(N)=O)n1 [Compound I-39, 6-((3R,4R)-3-aminotetrahydro-2H-pyran-4-ylamino)-4-(4-methyl-6-propylpyridin-2-ylamino)pyridazine-3-carboxamide]
10 | 487 nM | CCOc1cccc(Nc2cc(N[C@@H]3CCCC[C@@H]3N)nnc2C(N)=O)n1 [Compound I-30, 6-((1R,2S)-2-aminocyclohexylamino)-4-(6-ethoxypyridin-2-ylamino)pyridazine-3-carboxamide]
11 | 372 nM | CC(C)Oc1cccc(Nc2cc(N[C@@H]3CCOC[C@@H]3N)nnc2C(N)=O)n1 [Compound I-43, 6-((3R,4R)-3-aminotetrahydro-2H-pyran-4-ylamino)-4-(6-isopropoxypyridin-2-ylamino)pyridazine-3-carboxamide]
12 | 1800 nM | CC(C)(C)c1cccc(Nc2cc(N[C@@H]3CCOC[C@@H]3N)nnc2C(N)=O)n1 [Compound I-29, 6-((3R,4R)-3-aminotetrahydro-2H-pyran-4-ylamino)-4-(6-tert-butylpyridin-2-ylamino)pyridazine-3-carboxamide]
13 | 642 nM | CCCc1cc(C)cc(Nc2cc(N[C@@H]3CCCC[C@@H]3N)nnc2C(N)=O)n1 [Compound I-38, 6-((1R,2S)-2-aminocyclohexylamino)-4-(4-methyl-6-propylpyridin-2-ylamino)pyridazine-3-carboxamide]
14 | 2090 nM | CC(C)(C#N)c1cccc(Nc2cc(N[C@@H]3CCCC[C@@H]3N)nnc2C(N)=O)n1 [Compound I-36, 6-((1R,2S)-2-aminocyclohexylamino)-4-(6-(2-cyanopropan-2-yl)pyridin-2-ylamino)pyridazine-3-carboxamide]
